Data set [1] has as its target T1, sigma-1 receptor (S1R) (Cavia porcellus, UniProt Q60492).
T1 construct: Guinea pig liver tissue preparation abundantly contains sigma-1 receptor as compared to other tissues; from tissue; host or cells: guinea pig liver membrane homogenate
Description: Sigma-1 receptor competitive radioligand binding assay with [3H](+)-pentazocine in guinea pig liver membranes. The protocol:
Male Wistar-Harlan rats (n = 10, 225–250 g) and guinea pigs (n = 10, 350–400 g) were handled according to the European Communities Council Directive (2010/63/EU) and to the Regulations on Animal Protection (40/2013. (II. 14.) Korm. r.) of Hungary. The researchers did the best effort to minimize the number of animals and their suffering. Preparation of guinea pig and rat liver homogenates was performed according to a previous method with a slight modification. Euthanized male guinea pig and rats were killed by decapitation, and their livers were removed rapidly. Minced fresh livers were homogenized in ice-cold homogenization buffer (10 mM NaH2PO4 pH 7.4, 0.32 M sucrose, 1 mM MgSO4, 10 μg/mL leupeptin, 1 μg/mL pepstatin A, 5 μg/mL soybean trypsin inhibitor, 0.5 mM EGTA, 1 mM AEBSF) using a Braun Teflon-glass homogenizer at the highest rpm for 30 s. The homogenate was centrifuged at 17,000× g for 10 min (4 °C). Supernatant was recentrifuged at 100,000× g for 60 min at 4 °C. The resulting pellet was resuspended in 10 volumes homogenization buffer, homogenized by a glass homogenizer and stored in aliquots at −80 °C. The protein content of the samples was measured by the Bradford method and samples were diluted in assay buffer to obtain the appropriate amount for the assay.
Binding assays for the sigma-1 receptor were performed at 37 °C for 90 min in a 50 mM Tris–HCl binding buffer (pH 8.0) in plastic tubes in a total assay volume of 1 mL that contained 0.5 mg/mL of a membrane protein. […] The incubation was terminated by diluting the samples with an ice-cold wash buffer (50 mM of Tris–HCl, pH 8.0), followed by repeated washing and rapid filtration through Whatman GF/B glass fiber filters (Whatman Ltd., Maidstone, UK) presoaked with 0.1% polyethyleneimine. Filtration was performed with a 24-well Brandel Cell Harvester (Gaithersburg, MD, USA). Filters were air-dried and immersed into Ultima Gold MV scintillation cocktail, and then radioactivity was measured with a TRI-CARB 2100TR liquid scintillation analyzer (Packard, Perkin Elmer, Waltham, MA, USA).
(§1) The results of the competition binding studies are reported as means ± S.E.M. of at least three independent experiments each performed in duplicate. In competition binding studies, the inhibitory constants (Ki) were calculated from the inflection points of the displacement curves using nonlinear least-square curve fitting and the Cheng–Prusoff equation, Ki = EC50/(1 + [ligand]/Kd). All data and curves were analyzed by GraphPad Prism 5.0 (San Diego, CA, USA).

Data set [2] relates to S1R. On the set-up: method as in PMID 16463398. The note with it: cited from earlier work.
The target of data set [3] is T2, sigma-2 receptor (S2R) (Rattus norvegicus, UniProt Q5U3Y7).
T2 construct: from tissue; host or cells: rat (male Wistar-Harlan) liver membrane homogenate
T2 sequence (Q5U3Y7 1-176): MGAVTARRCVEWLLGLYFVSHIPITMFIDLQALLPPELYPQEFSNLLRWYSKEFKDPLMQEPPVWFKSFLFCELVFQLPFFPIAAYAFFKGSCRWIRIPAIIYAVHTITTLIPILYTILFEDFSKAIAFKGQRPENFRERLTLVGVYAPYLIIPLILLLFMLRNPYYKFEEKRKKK
In words: Sigma-2 receptor competitive radioligand binding assay with [3H]DTG in rat liver membranes, S1R masked with 100 nM (+)-pentazocine. The protocol:
Male Wistar-Harlan rats (n = 10, 225–250 g) and guinea pigs (n = 10, 350–400 g) were handled according to the European Communities Council Directive (2010/63/EU) and to the Regulations on Animal Protection (40/2013. (II. 14.) Korm. r.) of Hungary. The researchers did the best effort to minimize the number of animals and their suffering. Preparation of guinea pig and rat liver homogenates was performed according to a previous method with a slight modification. Euthanized male guinea pig and rats were killed by decapitation, and their livers were removed rapidly. […] The protein content of the samples was measured by the Bradford method and samples were diluted in assay buffer to obtain the appropriate amount for the assay.
as §1

Counter-ions that a name gives are not always drawn. Like-named read-outs stand apart in the source and are kept apart here.

What is called Ki is a dissociation constant, usually derived from enzyme kinetics or from competition with a known ligand. The melting point is the temperature of the solid-liquid transition.

T1 sequence (Q60492 whole entry): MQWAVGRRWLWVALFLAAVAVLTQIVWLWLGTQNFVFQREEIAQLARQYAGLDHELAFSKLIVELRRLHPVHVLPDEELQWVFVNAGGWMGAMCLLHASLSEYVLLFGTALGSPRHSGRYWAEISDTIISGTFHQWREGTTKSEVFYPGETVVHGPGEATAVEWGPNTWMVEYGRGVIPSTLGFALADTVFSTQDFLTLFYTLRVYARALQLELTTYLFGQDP

Turning to `CCOc1cc2c(cc1OCC)[C@H]1CCN[C@@H](c3ccc(N(C)C)cc3)N1CC2` (relative stereo) [L10, (4R*,11bR*)-9,10-Diethoxy-4-[4-(dimethylamino)phenyl]-1,3,4,6,7,11b-hexahydro-2H-pyrimido[6,1-a]isoquinoline], the Ki in data set [1] (read-out: Measured Ki) was determined as 2150 nM. With `CCOc1cc2c(cc1OCC)[C@H]1[C@H](CSc3ccc(Cl)cc3)CN1CC2` (relative stereo) [L12, (1R*,9bR*)-1-{[(4-Chlorophenyl)thio]methyl}-7,8-diethoxy-1,4,5,9b-tetrahydro-2H-azeto[2,1a]-isoquinoline], the Ki in data set [1] (read-out: Measured Ki) came to 3270 nM. Consider `NC(CC(=O)NCc1cccc(C(F)(F)F)c1F)c1ccccc1` (stereo not shown) [L2, 3-Amino-N-(2-fluoro-3-(trifluoromethyl)benzyl]-3-phenylpropanamide hydrochloride], for which the Ki in data set [1] (read-out: Measured Ki) came to 91 nM. In the case of `COc1cc(CCN2CCN(CCCc3ccccc3)CC2)ccc1OCCF` [fluoroethyl analog of S1R agonist SA4503], the KiS2R/KiS1R in data set [2] is listed as 14.1. `NN1C(=O)C2C3C=CC(C3)C2NC12CCN(Cc1ccccc1)CC2` (racemic) [L5, (±)-diendo-3′-amino-1-benzyl-5′,8′-methano-4′a,5′,8′,8′a-tetrahydrospiro[piperidine-4,2′(1′H)-quinazolin]-4′(3′H)-one]: in data set [1] (read-out: Measured Ki), the Ki was 463 nM. On to `CC1(C)C2CC(O)C(O)(CNCc3ccccc3)CC21` [L7, (1S,3R,4R,6R)-3-(benzylamino)methyl)-7,7-dimethylbicyclo[4.1.0]heptane-3,4-diol], for which the Ki in data set [1] (read-out: Measured Ki) turned out to be 1380 nM. As for `COc1cc2c(cc1OC)C(CCNCc1ccccc1)NCC2` (stereo not shown) [L1, N-Benzyl-6,7-dimethoxy-1,2,3,4-tetrahydro-1-isoquinolineethanamine dihydrochloride], the Ki in data set [1] (read-out: Measured Ki) was 32 nM. Regarding `O=C(NCC1NCCc2c1[nH]c1ccccc21)OCc1ccccc1` (stereo not shown) [L9, N-Benzyloxycarbonyl-(2,3,4,9-tetrahydro-1H-pyrido[3,4-b]indol-1-yl)methanamine], the Ki in data set [1] (read-out: Measured Ki) came to 1720 nM. As to `CC(C)=CCN1CC[C@]2(C)c3cc(O)ccc3C[C@H]1[C@H]2C` [(+)-pentazocine], the “displacement of [3H]DTG (partial)” value in data set [3] is 70–80%. `Cl.NC(CC(=O)NCc1cc(F)cc(C(F)(F)F)c1)c1ccccc1` (stereo not shown) [L4, 3-Amino-N-(3-fluoro-5-(trifluoromethyl)benzyl]-3-phenylpropanamide hydrochloride] came in with a melting point of 180 to 182 °C. The Ki in data set [1] (read-out: Measured Ki) is 420 nM.

As to `Cn1c2c(c3ccccc31)CCNC2CNC(=O)OCc1ccccc1` (stereo not shown) [L6, N-Benzyloxycarbonyl-(9-methyl-2,3,4,9-tetrahydro-1H-pyrido[3,4-b]indol-1-yl)methanamine], the Ki in data set [1] (read-out: Measured Ki) was found to be 1040 nM. Turning to `COCCCC/C(=N\OCCN)c1ccc(C(F)(F)F)cc1` [fluvoxamine, reference compound], the Ki in data set [1] (read-out: S1R Ki ± S.E.M.) is 31 ± 3 nM. Further, the “displacement of [3H]DTG (partial)” value in data set [3] is listed as 70–80%. For the compound `CC(CN)C(=O)NCc1cccc(C(F)(F)F)c1F` (stereo not shown) [L8, 3-Amino-N-(2-fluoro-3-(trifluoromethyl)benzyl]-2-methylpropanamide trifluoroacetate], in data set [1] (read-out: Measured Ki), the Ki is 1530 nM. `COc1ccc(OCC(O)CN2CCc3ccccc3C2)cc1` (stereo not shown) [L3, 1-[(4-Methoxyphenoxy)methyl]-2-(1,2,3,4-tetrahydroisoquinolin-2-yl)ethanol]: the Ki in data set [1] (read-out: Measured Ki) is 110 nM.
